From patent US20110033930A1, “METHOD FOR OBTAINING NGN3-EXPRESSING CELLS AND INSULIN PRODUCING-BETA CELLS” (priority 2008, published 2011)
Read-outs that look alike come from different tables or passages of the source.

How the values were obtained:
[1] = test system: E13.5 rat pancreatic explants; experiment: Real-time PCR of lineage markers in cultured pancreatic explants with HDACi; assay type: cell-based; conditions: for endocrine β/δ lineage: MS275 1 μM, NaB 125 μM; for Arx expression enhanced / Ngn3 expression peak, higher than in controls / increase in PP expression / increase in glucagon expression: day7; for SPP1 expression: especially after 5 and 7 days of culture; for Ngn3 expression profile: from day1; for Pax4 expression: over 7 days of culture; for increase in levels of Mist1 / increase in levels of P48 / increase in levels of amylase: vs control
From the text: The first day post-coitum was taken as embryonic day 0.5 (E0.5). Pregnant female rats at 13.5 days of gestation were killed by CO2asphyxiation, according to the French Animal Care Committee's guidelines. Dorsal pancreatic buds from E13.5 rat embryos were dissected as described previously (2).
(§2) Organ culture, HDACi treatments, BrdU incorporation: Pancreases were laid on 0.45 μm filters (Millipore) at the air-medium interface in Petri dishes, containing RPMI 1640
RNA extraction and real-time PCR: Total RNA was extracted from pools of at least three pancreases using RNeasy Microkit (Qiagen) and reverse transcribed using Superscript reagents (Invitrogen). Real-time PCR was performed with the 7300 Fast real-time PCR System; each reaction consisted of a mix of Taqman® universal PCR master mix with a specific labelled probe (Applied Biosystem) (21). The comparative method of relative quantification (2^−ΔΔct) (38) was used to calculate expression levels of each target gene, normalized to peptidylpropyl isomerase A (ppia/cyclophilin A). The data are presented as fold changes in gene expression. At least three pools of explants were analyzed per condition and results are expressed as means±SEM. Statistical significance was determined using Student's t test.

[2] = test system: E13.5 rat pancreatic explants; experiment: BrdU incorporation cell proliferation assay in pancreatic explants; assay type: cell-based; conditions: for proliferative rate for glucagon+ cells: 5-day treatment, vs controls; for percentage of PDX1+/BrdU+: 1 day of culture, BrdU during last hour, control 30.4±1.4%; for proliferation of NGN3+ cells: after 3 days of culture
Experimental: (§1) (Invitrogen) supplemented with penicillin (100 U/mL), streptomycin (100 μg/mL), HEPES (10 mmol/L), L-glutamine (2mmol/L), non-essential amino acids (1x, Invitrogen) and 10% heat-inactivated calf serum (HyClone). Cultures were maintained at 37° C. in humidified 95% air/5% CO2. Medium was changed every other day. Explants were cultured in the presence of VPA or TSA (Sigma). We determined the optimal concentration of both inhibitors by testing increasing doses of VPA (from 0.75 mM to 3 mM) and TSA (from 50 nM to 200 nM). […] MS275 and NaB (Sigma) were used at 1 μM and 125 μM, respectively. For cell proliferation assay, 10 μM BrdU (Sigma) was added to the medium during the last hour of culture.
Immunohistochemistry and quantification: Tissues were fixed in 10% formalin, pre-embedded in low gelling agarose and embedded in paraffin. All sections (4 μm thick) of each pancreatic explant were collected and processed for immunohistochemistry, as described previously (14, 46). Antibodies were used at the following dilutions: mouse anti-insulin (Sigma, 1/2000), guinea pig anti-insulin (DAKO, 1/200), mouse anti-glucagon (Sigma, 1/2000), rabbit anti-amylase (Sigma, 1/300), goat anti-osteopontin/SPP1 (R&D systems, 1/200), rabbit anti-PDXI ((14), 1/1000), mouse anti-BrdU (Amersham, ½), rabbit anti-Ngn3 ((21), 1/1000). The fluorescent secondary antibodies were: fluorescein anti-rabbit and anti-goat antibodies (Jackson Immunoresearch, 1/200), Texas-red anti-mouse antibody (Jackson Immunoresearch, 1/200) Alexa fluor 488 anti-rabbit antibody (Biogenex, 1/400) and AMCA anti-guinea pig antibody (Jackson Immunoresearch, 1/200). Nuclei were stained blue with Hoechst 33342 (0.3 μg/ml, Invitrogen). Ngn3 detection was perfointed as previously described (21) using the Vectastain elite ABC kit (Vector Laboratories). Photographs were taken using a fluorescence microscope (Leitz DMRB, Leica) and digitized using cooled 3CCD cameras (C5810 or C7780, Hamamatsu). The surface area of each staining was quantified with IPLab (Scanalytics). The surface areas per section were summed to obtain the total surface area per explant in mm2. At least three explants were analyzed per condition and results are expressed as means±SEM. Statistical significance was determined using Student's t test.
Thus, they cultured pancreases for 1 day with or without VPA and TSA and added BrdU to the medium during the last hour of culture.

[3] = test system: E13.5 rat pancreatic explants; experiment: In situ hybridization of Ngn3 transcripts in cultured pancreatic explants; assay type: cell-based; conditions: day5
Experimental: In situ hybridization: In situ hybridization was performed as previously described (15) and colorimetric development was performed with 5-bromo-4-chloro-3-indolyl phosphate (Promega) and nitroblue tetrazolium (Roche). No signal was obtained when a sense riboprobe was used.

[4] = test system: class I and class II HDACs; conditions: background, refs 17 and Yoshida et al., 1990; cited from earlier work
[5] = test system: E13.5 rat pancreatic explants; experiment: Immunohistochemistry and surface-area quantification of cultured pancreatic explants; assay type: cell-based; conditions: for NGN3+ cells: immunohistochemical analysis, day7; for increase in the number of glucagon-expressing cells: immunohistological analysis; for number of insulin+ cells: immunohistology, days 5 and 7; for acinar cell development (surface area occupied by amylase+ cells): vs control
From the text: Dorsal pancreatic buds from E13.5 rat embryos were dissected as described previously (2).
as §2

[6] = test system: E13.5 rat pancreatic explants; experiment: TUNEL labelling of apoptotic amylase or insulin cells; assay type: cell-based
Experimental: TUNEL labelling: Terminal deoxynucleotidyltransferase-mediated dUTP-biotin nick end labeling (TUNEL) experiments were performed using an in situ cell death detection kit (Roche) and followed by insulin and amylase immunostaining.
The effects of HDACi treatment on pancreatic differentiation are independent of proliferation and apoptosis: The observed effects of HDACi on pancreatic development could be attributed to a direct effect of HDAC inhibition on the differentiation program itself or to an indirect effect on proliferation/apoptosis. First, the inventors asked whether the massive increase in the number of NGN3+ cells was accompanied by an increased proliferation of early PDX1+ pancreatic precursor cells that would give rise to more NGN3+ endocrine progenitor cells (20). Thus, they cultured pancreases for 1 day with or without VPA and TSA and added BrdU to the medium during the last hour of culture. No difference in BrdU incorporation was seen. The percentage of PDX1+/BrdU+ was 30.4±1.4% in control conditions, 29.3±2.3% with VPA and 31.9±1.4% in TSA-treated pancreases. They next determined whether the greater number of NGN3+ cells was associated with increased proliferation of such cells. […] Given the observed increase in glucagon-expressing cells with HDACi treatment, the inventors also tested for increased proliferation of such cells. […]

[7] = test system: E13.5 rat pancreatic explants; experiment: Morphology of pancreases cultured with HDACi; assay type: cell-based; conditions: for morphology of cultured pancreas (branching, cystic structures, acinar structures): after 7 days of culture
From the text: as §2
HDACi treatment suppresses acinar differentiation and promotes ductal differentiation: The inventors first compared the morphology of pancreases cultured in the presence or absence of HDACi.

[8] = test system: Total cellular HDAC enzyme activity; experiment: HDAC enzyme activity assay (total cellular HDAC activity of treated explant extracts); assay type: biochemical; conditions: extracts of cultured rat pancreatic explants treated with 1 mM VPA or 100 nM TSA
Experimental: HDAC enzyme activity assay: Total cellular HDAC enzyme activity was measured using an HDAC assay kit (Millipore). Briefly, 2 μg of control or VPA- or TSA-treated cell extracts (prepared as described above) were incubated in a 96-well plate with a fluorometric substrate in HDAC assay buffer for 45 min at 37° C. An activator solution was then added to release the fluorophore from the deacetylated substrates, and fluorescence was measured in a plate-reading fluorimeter (excitation=390 nm, emission detection=460 nm).
To study the role of HDACs in pancreas development, the inventors treated rat pancreatic explants with VPA and TSA. They cultured E13.5 rat pancreases on floating filters at the air-medium interface for 14 days. Under such conditions, acinar and endocrine cells develop in a way that replicates pancreas development in vivo (2, 21). […] They next measured total HDAC activity from day 0 to day 14 and found a 65.4%±1.6% decrease between the two stages.

[9] = test system: E13.5 rat pancreatic explants; experiment: Dose finding of HDACi in organ culture (cell death); conditions: TSA tested from 50 nM to 200 nM; data not shown
Experimental: as §1

[10] = real-time PCR, 7 days of culture

SMILES	endocrine β/δ lineage [1]	proliferative rate for glucagon+ cells [2]	percentage of PDX1+/BrdU+ [2] [%]	proliferation of NGN3+ cells [2]	Ngn3 mRNA expression by in situ hybridization [3]	HDAC class selectivity [4]	NGN3+ cells [5]	increase in the number of glucagon-expressing cells [5] [fold]	number of insulin+ cells [5]	acinar cell development (surface area occupied by amylase+ cells) [5]	NeuroD1 expression ([1]; real-time PCR)	insulin expression [1, 10]	somatostatin expression [1, 10]	Arx expression enhanced ([1]; real-time PCR)	Ngn3 expression peak, higher than in controls ([1]; real-time PCR) [fold]	increase in PP expression ([1]; real-time PCR) [fold]	increase in glucagon expression ([1]; real-time PCR) [fold]	SPP1 expression ([1]; real-time PCR)	Ngn3 expression profile ([1]; real-time PCR)	Pax4 expression ([1]; real-time PCR)	further results
CCCC(=O)[O-].[Na+] [NaB, sodium butyrate]	results similar to those with TSA	–	–	–	–	–	–	–	–	–	–	–	–	–	–	–	–	–	–	–	–
Nc1ccccc1NC(=O)c1ccc(CNC(=O)OCc2cccnc2)cc1 [MS275]	results similar to those with VPA	–	–	–	–	–	–	–	–	–	–	–	–	–	–	–	–	–	–	–	–
CCCC(CCC)C(=O)O [VPA, valproic acid]	–	no difference	29.3±2.3	neither VPA nor TSA increased the proliferation	enhanced Ngn3 expression	preferentially targets class I HDACs	many were present	4	major decrease	much lower	significantly lower	dramatic decrease	almost full abolition	around 3 fold	14	4	5	major increase	dramatic increase	dramatic decrease	insulin+ cells observed immunohistochemically ([5]; tissues cultured for 14 days): Few; number of apoptotic cells expressing amylase or insulin [6]: neither VPA nor TSA treatments modified the number of apoptotic cells; increase in levels of Mist1 ([1]; real-time PCR): strongly reduced; increase in levels of P48 ([1]; real-time PCR): strongly reduced; increase in levels of amylase ([1]; real-time PCR): strongly reduced; insulin expression ([1]; tissues cultured for 14 days): remained dramatically low; morphology of cultured pancreas (branching, cystic structures, acinar structures) [7]: the tips of the branched epithelium formed cystic structures; decrease in HDAC activity [8]: 93.2%±2.3%
CC(/C=C/C(=O)NO)=C\[C@@H](C)C(=O)c1ccc(N(C)C)cc1 [TSA, trichostatin A]	–	no difference	31.9±1.4	neither VPA nor TSA increased the proliferation	enhanced Ngn3 expression	inhibits both class I and class II HDACs	many were present	4	no differences	much lower	strongly activated	no differences	no differences	~11 fold	14	6	25	major increase	dramatic increase	strongly activated	number of apoptotic cells expressing amylase or insulin ([6]; TUNEL method): neither VPA nor TSA treatments modified the number of apoptotic cells; somatostatin expression ([1]; after 14 days in culture, data not shown): increased; insulin expression increased compared with controls ([1]; real-time PCR, day9): 2 fold; insulin expression increased compared with controls ([1]; real-time PCR, day11): 3 fold; insulin expression increased compared with controls ([1]; real-time PCR, day14): 5 fold; increase in levels of Mist1 ([1]; real-time PCR): strongly reduced; increase in levels of P48 ([1]; real-time PCR): strongly reduced; increase in levels of amylase ([1]; real-time PCR): strongly reduced; morphology of cultured pancreas (branching, cystic structures, acinar structures) [7]: the tips of the branched epithelium formed cystic structures; morphology: translucent buds at the periphery of the pancreas ([7]; after 11 days of culture): developed translucent buds; decrease in HDAC activity [8]: 99.2%±0.9%; concentrations that result in increased cell death [9]: above 125 nM
